Assay results: paper PMC12040169 (PLOS Biology, 2025)

assay: in vitro; conditions: human, hela cells, % viability

SMILES	viability at 28.5 h, 10 µM [%]
c1coc(CNc2nccnc2-c2cccs2)c1 [CBK036618]	85.5
COc1ccc(-c2cc(C(=O)Nc3ccc(OC(F)(F)F)cc3)cnc2-c2ccccc2)cn1 [CBK036621]	79.2
CC(=O)c1ccc(-c2cc(C(=O)Nc3ccc4c(c3)OCCO4)cnc2-c2ccc(Cl)cc2)s1 [CBK036627]	105
c1cnc(-c2ccoc2)c(NCCCN2CCOCC2)n1 [CBK036631]	95.3
COc1ccc(-c2cc(C(=O)N[C@@H](C)c3ccccc3)cnc2-c2cccc(C)c2)cc1 [CBK036635]	105
COc1ccc(-c2cc(C(=O)N3CCN(C(C)=O)CC3)cnc2-c2ccccc2)cn1 [CBK036637]	101
COc1ncc(-c2nccnc2N2CCCC2CO)c(OC)n1 (centres unmarked) [CBK036638]	92.8
CC(C)[C@@H](CO)Nc1nccnc1-c1ccc(CN)cc1 [CBK036640]	104
NC(=O)c1ccc(-c2nccnc2NCCc2ccncc2)cc1 [CBK036644]	97.1
CC(=O)NCCNC(=O)c1cnc(-c2ccc(Cl)cc2)c(-c2ccc(O)cc2)c1 [CBK036647]	101
COc1ccc(-c2cc(C(=O)NCCc3c[nH]c4ccccc34)cnc2-c2ccc(F)cc2)cn1 [CBK036649]	95.2
CN(C)C(=O)c1cccc(-c2nccnc2NCc2cccc([N+](=O)[O-])c2)c1 [CBK036651]	94.3
Cc1cccc(-c2ncc(NC(=O)c3cccc(N(C)C)c3)nc2-c2ccco2)c1 [CBK036654]	103
CC(C)[C@H](CO)NC(=O)c1cnc(-c2ccc(Cl)cc2)c(-c2ccco2)c1 [CBK036658]	108
CC(=O)Nc1ccc(NC(=O)c2cnc(-c3cccc(C)c3)c(-c3ccncc3)c2)cc1C(F)(F)F [CBK036660]	49.6
CS(=O)(=O)CCNC(=O)c1cnc(-c2cccc(C(F)(F)F)c2)c(-c2ccncc2)c1 [CBK036661]	105
COc1ccc(-c2cc(C(=O)NCCc3cccc(C(F)(F)F)c3)cnc2-c2ccccc2)cn1 [CBK036662]	99.9
COc1ccc(-c2cc(C(=O)NCCc3c[nH]cn3)cnc2-c2ccc(F)cc2)cn1 [CBK036675]	112
O=C(c1cnc(-c2ccccc2)c(-c2cccnc2)c1)N1CCC(S(=O)(=O)c2ccccc2)C1 (centres unmarked) [CBK036685]	103
Nc1ccc(-c2nc(NC(=O)Cc3ccccc3)cnc2-c2ccc(F)c(Cl)c2)cc1 [CBK036690]	89.5
CC(C)[C@H](CO)NC(=O)c1cnc(-c2ccccc2)c(-c2ccncc2)c1 [CBK036691]	115
COc1ccc(-c2cc(C(=O)NCC(F)(F)F)cnc2-c2ccc(Cl)cc2)cn1 [CBK036698]	103

SMILES	viability at 28.5 h, 10 µM [%]
COc1ccc(-c2cc(C(=O)NCc3ccc(F)cc3)cnc2-c2cccc(C)c2)cc1 [CBK036702]	98.8
COc1ccc(C(C)C)cc1-c1nccnc1NC1CCC(N)CC1 (centres unmarked) [CBK036703]	108
COc1ccc(-c2cc(C(=O)N3CCC(S(C)(=O)=O)C3)cnc2-c2ccccc2)cn1 (centres unmarked) [CBK036706]	99.7
O=C(O)c1cccc(NC(=O)c2cnc(-c3ccccc3)c(-c3ccco3)c2)c1 [CBK036710]	93.4
COc1ccc(C(C)C)cc1-c1nccnc1N[C@@H](CO)C(C)C [CBK036711]	109
O=C(Nc1cnc(-c2cccc(C(F)(F)F)c2)c(-c2ccco2)n1)c1cccnc1 [CBK036714]	95.3
CC(=O)N1CCC(C(=O)Nc2cnc(-c3ccc(F)c(Cl)c3)c(-c3cccnc3)n2)CC1 [CBK036719]	108
CC(=O)c1ccc(OCC(=O)Nc2cnc(-c3cccc(C)c3)c(-c3ccc(N)cc3)n2)cc1 [CBK036722]	107
Cc1noc(C)c1C(=O)Nc1cnc(-c2cccc(C(F)(F)F)c2)c(-c2cccnc2)n1 [CBK036727]	96.8
COc1ccc(-c2cc(C(=O)NCc3ccc(N)cc3)cnc2-c2cccc(C)c2)cc1 [CBK036728]	106
COc1ccc(-c2cc(C(=O)NCCc3ccccn3)cnc2-c2cccc(C)c2)cc1 [CBK036730]	93.7
C[C@@H](Nc1nccnc1-c1cccc(F)c1)c1ccccc1 [CBK036733]	98.3
CC(C)(CO)CNC(=O)c1cnc(-c2ccccc2)c(-c2ccncc2)c1 [CBK036734]	111
c1ccc2c(CCNc3nccnc3-c3ccoc3)c[nH]c2c1 [CBK036743]	102
Cc1cccc(-c2ncc(NC(=O)CC3OC(=O)c4ccccc43)nc2-c2ccc(N)cc2)c1 (centres unmarked) [CBK036749]	91.5
CC(NC(=O)c1cnc(-c2ccc(Cl)cc2)c(-c2ccc(O)cc2)c1)c1ccc(F)cc1 (centres unmarked) [CBK036751]	89.9
COC1CCC(C(=O)Nc2cnc(-c3cccc(OC(F)(F)F)c3)c(-c3cccnc3)n2)CC1 (centres unmarked) [CBK036754]	97.4
COc1ccccc1-c1nccnc1NCc1ccc(OC(F)(F)F)cc1 [CBK036761]	96
Fc1cccc(-c2nccnc2NCCc2ccncc2)c1 [CBK036763]	95.8
CCC(CO)Nc1nccnc1-c1cccc(F)c1 (centres unmarked) [CBK036775]	108
COc1cccc(CNc2nccnc2-c2ccoc2)c1OC [CBK036782]	105
Nc1cccc(-c2nccnc2N2CCCC2CO)c1 (centres unmarked) [CBK036786]	102

SMILES	viability at 28.5 h, 10 µM [%]
CN(C)CCN1CCN(c2ccc(-c3ccc(OC(F)(F)F)cc3)cn2)CC1 [CBK036796]	94.7
COc1ccc(Nc2ccc(-c3ccc4c(c3)OCO4)cn2)c(C)c1 [CBK036799]	102
CCC(CO)Nc1nccnc1-c1cccs1 (centres unmarked) [CBK036800]	98.3
CO[C@@H](C(=O)Nc1cnc(-c2ccc(F)cc2)c(-c2ccsc2)n1)c1ccccc1 [CBK036803]	98.4
FC(F)(F)Oc1ccc(CNc2nccnc2-c2cccs2)cc1 [CBK036806]	100
O=C(CCc1cccnc1)Nc1cnc(-c2cccc(OC(F)(F)F)c2)c(-c2cccnc2)n1 [CBK036811]	94.5
O=C(c1ccc(-c2nccnc2NCC2CC2)cc1)N1CCOCC1 [CBK036814]	88.8
COc1ccc(-c2ccc(N3CCN(CCN(C)C)CC3)nc2)cc1OC [CBK036818]	98.2
O=C(Nc1cnc(-c2ccc(F)c(Cl)c2)c(-c2cccnc2)n1)c1cnccn1 [CBK036819]	102
CN(C)CCN(C)c1ccc(-c2cc3ccccc3o2)cn1 [CBK036820]	107
Fc1ccc(-c2ccc(N3CCN(c4ccncc4)CC3)nc2)cc1Cl [CBK036821]	111
CN(C)CCN(C)c1cccc(/C=C/c2ccccc2)n1 [CBK036826]	109
COc1ccc(Nc2ccc(-c3cnc(OC)nc3OC)cn2)c(C)c1 [CBK036827]	115
C=CCNc1nccnc1-c1ccccc1OC [CBK036831]	106
O=C1CCCN1CCCNc1nccnc1-c1ccncc1 [CBK036832]	106
FC(F)(F)c1ccc(CNc2nccnc2-c2cccs2)cc1 [CBK036834]	98.6
O=C(Nc1cnc(-c2cccc(OC(F)(F)F)c2)c(-c2cccnc2)n1)c1ccccn1 [CBK036837]	99.2
CN1CCN(C(=O)c2ccc(-c3nccnc3NCCc3cccnc3)cc2)CC1 [CBK036838]	97.2
COc1ccc(-c2nc(NC(=O)Cc3ccccc3OC)cnc2-c2cccc(C)c2)cn1 [CBK036839]	111
CC(=O)c1ccc(-c2nc(NC(=O)CC#N)cnc2-c2ccc(F)c(Cl)c2)s1 [CBK036841]	108
O=C(CCN1CCCCC1)Nc1cnc(-c2ccc(F)cc2)c(-c2ccsc2)n1 [CBK036846]	90.3
COc1ncc(-c2ccc(N3CCN(c4ccncc4)CC3)nc2)c(OC)n1 [CBK036848]	99.1

SMILES	viability at 28.5 h, 10 µM [%]
c1ccc(N2CCN(c3cccc(-c4ccc5c(c4)OCO5)n3)CC2)nc1 [CBK036851]	104
O=C1CCCN1CCCNc1nccnc1-c1ccc(CO)cc1 [CBK036860]	87.2
Fc1cccc(-c2nccnc2NCCc2c[nH]c3ccccc23)c1 [CBK036861]	96.7
COCCNc1nccnc1-c1cccc(C(=O)N2CCN(C)CC2)c1 [CBK036864]	99.9
COc1cc(CNc2nccnc2-c2ccc(C(=O)N3CCOCC3)cc2)cc(OC)c1 [CBK036866]	99.2
O=C(Nc1cnc(-c2cccc(C(F)(F)F)c2)c(-c2ccco2)n1)c1ccccn1 [CBK036873]	88.5
c1ccc(N2CCN(c3cccc(-c4cc5ccccc5o4)n3)CC2)nc1 [CBK036875]	107
CN1CCN(c2nccnc2-c2cccc(F)c2)CC1 [CBK036876]	89.8
CN(C)c1cccc(Nc2ccc(-c3cccc(C(=O)O)c3)cn2)c1 [CBK036879]	101
O=C(O)c1cccc(-c2cccc(N3CCN(c4ccccn4)CC3)n2)c1 [CBK036888]	92.7
COc1ccccc1-c1nccnc1NCc1ccccn1 [CBK036894]	108
O=C(CCOc1ccccc1F)Nc1cnc(-c2ccc(F)cc2)c(-c2ccsc2)n1 [CBK036897]	99.7
C=CCNc1nccnc1-c1ccc(O)cc1 [CBK036898]	99.6
CN(C)c1ccc(CC(=O)Nc2cnc(-c3cccc(C(F)(F)F)c3)c(-c3cccnc3)n2)cc1 [CBK036901]	98.2
COc1cc(-c2ccc(NCCn3cc[nH]c3=O)nc2)cc(OC)c1OC [CBK036907]	106
COc1ccccc1-c1ccc(Nc2ccccc2)nc1 [CBK036909]	85.4
NCCCNc1ccc(-c2ccco2)cn1 [CBK036911]	100
c1ccc(Oc2ccccc2-c2ccc(Nc3ccc(N4CCOCC4)cc3)nc2)cc1 [CBK036913]	108
CN(C)c1cccc(Nc2ccc(-c3ccc(CCC(=O)O)cc3)cn2)c1 [CBK036918]	97.2
O=C(c1ccc(-c2nccnc2NCc2ccco2)cc1)N1CCOCC1 [CBK036920]	98.6
